Laboratory results published in ChEMBL document CHEMBL6120940, “Discovery of N-Aryl-N'-[4-(aryloxy)cyclohexyl]squaramide-Based Inhibitors of LXR/SREBP-1c Signaling Pathway Ameliorating Steatotic Liver Disease: Navigating the Role of SIRT6 Activation” (J Med Chem, 2024).
Activity calls are given as the source filed them. The calls are words filed in the database; no cut-off is given here.

How the values were obtained:
Hepatocyte = experiment: Effect on Acox-1 gene expression in mouse hepatocyte; format: functional, cell-based
[1] = target: T1, Sterol regulatory element-binding protein 1 (Homo sapiens) (UniProt P36956); experiment: Inhibition of SREBP-1c transcriptional activity in HEK293 cells expressing LXRalpha/RXRalpha assessed as reduction in SRE-luciferase level pretreated with compound for 30 mins followed by T0901317 addition and measured after 12 hrs by Dual-Glo luciferase assay; format: cell-based; conditions: dose 2.5-5 µM, time 12.5 hrs
T1 sequence (whole entry): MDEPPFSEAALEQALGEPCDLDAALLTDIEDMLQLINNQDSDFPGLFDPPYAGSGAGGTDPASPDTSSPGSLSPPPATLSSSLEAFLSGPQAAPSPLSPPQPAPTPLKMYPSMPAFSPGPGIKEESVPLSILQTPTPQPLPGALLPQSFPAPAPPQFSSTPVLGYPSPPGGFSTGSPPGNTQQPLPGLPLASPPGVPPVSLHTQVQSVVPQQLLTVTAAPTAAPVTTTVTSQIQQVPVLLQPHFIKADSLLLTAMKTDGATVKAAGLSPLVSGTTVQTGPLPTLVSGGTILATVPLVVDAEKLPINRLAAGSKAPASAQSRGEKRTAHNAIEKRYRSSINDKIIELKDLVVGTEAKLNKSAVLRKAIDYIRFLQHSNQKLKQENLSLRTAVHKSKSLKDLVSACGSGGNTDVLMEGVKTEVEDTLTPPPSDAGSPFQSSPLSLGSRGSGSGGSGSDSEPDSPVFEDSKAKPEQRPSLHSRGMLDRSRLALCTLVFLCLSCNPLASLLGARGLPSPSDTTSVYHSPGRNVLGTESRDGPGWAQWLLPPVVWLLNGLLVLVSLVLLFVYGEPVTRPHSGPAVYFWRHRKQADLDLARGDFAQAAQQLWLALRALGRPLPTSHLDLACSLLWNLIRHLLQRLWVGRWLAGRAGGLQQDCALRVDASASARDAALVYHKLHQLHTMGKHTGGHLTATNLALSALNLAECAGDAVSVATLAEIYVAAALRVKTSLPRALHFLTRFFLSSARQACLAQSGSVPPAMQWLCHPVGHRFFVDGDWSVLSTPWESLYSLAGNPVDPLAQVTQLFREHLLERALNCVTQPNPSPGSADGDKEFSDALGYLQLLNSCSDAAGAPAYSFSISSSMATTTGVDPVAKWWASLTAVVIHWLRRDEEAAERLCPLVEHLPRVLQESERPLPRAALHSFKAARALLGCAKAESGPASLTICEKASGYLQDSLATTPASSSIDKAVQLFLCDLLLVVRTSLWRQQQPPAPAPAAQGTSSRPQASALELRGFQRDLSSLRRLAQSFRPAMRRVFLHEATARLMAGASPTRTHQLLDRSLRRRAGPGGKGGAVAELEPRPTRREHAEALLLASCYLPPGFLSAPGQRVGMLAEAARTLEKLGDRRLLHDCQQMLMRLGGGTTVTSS

In the case of `COc1ccccc1Nc1c(N[C@H]2CC[C@H](Oc3ccc([N+](=O)[O-])cc3)CC2)c(=O)c1=O`, the Activity (Hepatocyte) is reported as “inactive” and the inhibition [1] is reported as “Dose-dependent-effect”.
